Experimental data as given in patent US20120141586A1, “THROMBIN RECEPTOR ANTAGONIST AND CLOPIDOGREL FIXED DOSE TABLET” (priority 2009, published 2012).
“Also recorded” adds a separate entry of the source.

Key:
thrombin receptor = biological target: T1, thrombin receptor (Homo sapiens, UniProt P25116); conditions: cited from earlier work
T1 sequence (P25116 22-425): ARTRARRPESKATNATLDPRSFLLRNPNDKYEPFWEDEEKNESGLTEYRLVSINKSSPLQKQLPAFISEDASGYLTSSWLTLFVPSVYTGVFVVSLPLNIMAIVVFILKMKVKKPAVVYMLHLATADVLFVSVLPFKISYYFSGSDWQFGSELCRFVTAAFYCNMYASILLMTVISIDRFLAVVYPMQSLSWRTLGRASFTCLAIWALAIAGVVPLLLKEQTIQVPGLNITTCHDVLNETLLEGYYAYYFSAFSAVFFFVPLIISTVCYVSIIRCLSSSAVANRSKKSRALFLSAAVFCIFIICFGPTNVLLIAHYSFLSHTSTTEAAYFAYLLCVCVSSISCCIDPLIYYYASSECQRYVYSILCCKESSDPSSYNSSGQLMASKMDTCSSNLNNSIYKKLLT

[1] = Compatibility studies between clopidogrel premix and 530348 bisulfate / free base
Description: b. […] Clopidogrel is known to degrade under acidic and alkaline conditions. […] To test this hypothesis, the above studies were repeated in the presence of 530348 free base.

[2] = forced degradation data generated at Dr. Reddy's Lab; cited from earlier work

Row | Structure (SMILES) | Selectivity (thrombin receptor) | Thrombin receptor antagonist activity (potency) (thrombin receptor) | Extent of clopidogrel degradation ([1]; bisulfate salt compared to 530348 free base (FIG. 2)) | Clopidogrel degradation ([1]; in the presence of 530348 bisulfate) | Susceptibility of clopidogrel to degradation [2]
1 | CCOC(=O)N[C@@H]1CC[C@@H]2[C@@H](C1)C[C@H]1C(=O)O[C@H](C)[C@H]1[C@H]2/C=C/c1ccc(-c2cccc(F)c2)cn1 [SCH 530348 bisulfate] | good | good |  |  | 
2 | CCOC(=O)N[C@@H]1CC[C@@H]2[C@@H](C1)C[C@H]1C(=O)O[C@H](C)[C@H]1[C@H]2/C=C/c1ccc(-c2cccc(F)c2)cn1 [SCH 530348, ethyl[(1R,3aR,4aR,6R,8aR,9S,9aS)-9-[(E)-2-[5-(3-fluorophenyl)-2-pyridinyl]ethenyl]dodecahydro-1-methyl-3-oxonaphtho[2,3-c]furan-6-yl]carbamate] | good | good |  |  | 
3 | COC(=O)[C@H](c1ccccc1Cl)N1CCc2sccc2C1 [clopidogrel] |  |  | greater in the presence of the bisulfate salt | significant degradation; also recorded: degrades | susceptible to degradation upon exposure to heat, humidity, and oxygen
